Measurements published in patent US12252524B2, “GIP/GLP1 co-agonist compounds” (Eli Lilly and Company, priority 2018, dated 2025).
Numbered stars: 1 amine (or outer) side, 2 acyl side, 3 side chain; on linkers, the order of the positions; unused ones are H or OH. Square brackets hold non-standard residues; d marks the D form. Side chains are listed from the residue outwards. Peptide text beside a SMILES is read from it. * marks the point of attachment. C20 diacid = O=C(O)CCCCCCCCCCCCCCCCCCC(=O)*; αMePhe(2-F) = C[C@](N)(Cc1ccccc1F)C(=O)O; γGlu = O=C(O)[C@H](CCC(=O)[*:2])N[*:1]; αMeF = C[C@](N)(Cc1ccccc1)C(=O)O; 3Pal = N[C@@H](Cc1cccnc1)C(=O)O; 4Pal = N[C@@H](Cc1ccncc1)C(=O)O; αMeL = CC(C)C[C@](C)(N)C(=O)O; AEEA = NCCOCCOCC(=O)O; Aib = CC(C)(N)C(=O)O

Key:
[1] = molecular target: T1, human Gcg receptor (Homo sapiens, UniProt P47871); experiment: [125I]-Glucagon binding (SPA), human Gcg receptor; settings: read-out: hGLcgR Ki, nM (SEM, n)
T1 construct: expressed in transfected cells; crude membranes
T1 sequence (P47871 26-477): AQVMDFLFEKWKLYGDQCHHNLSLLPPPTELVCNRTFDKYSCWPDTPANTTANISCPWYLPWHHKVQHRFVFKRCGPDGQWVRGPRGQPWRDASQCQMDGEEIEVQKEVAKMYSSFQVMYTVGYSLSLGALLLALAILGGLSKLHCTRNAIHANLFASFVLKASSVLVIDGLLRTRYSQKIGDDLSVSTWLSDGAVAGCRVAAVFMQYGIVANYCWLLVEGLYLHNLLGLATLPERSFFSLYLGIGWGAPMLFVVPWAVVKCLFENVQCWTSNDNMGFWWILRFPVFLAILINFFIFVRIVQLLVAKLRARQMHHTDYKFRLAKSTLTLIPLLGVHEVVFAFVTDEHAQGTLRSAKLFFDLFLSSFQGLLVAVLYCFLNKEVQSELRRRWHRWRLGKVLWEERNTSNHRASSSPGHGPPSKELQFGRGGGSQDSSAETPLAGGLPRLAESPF
Protocol: (§1) Two methods are used for the preparation of crude cell membranes.
(§2) Method 1: Frozen cell pellets are lysed on ice in hypotonic buffer containing 50 mM Tris HCl, pH 7.5, and Roche Complete™ Protease Inhibitors with EDTA. The cell suspension is disrupted using a glass Potter-Elvehjem homogenizer fitted with a Teflon® pestle for 25 strokes. The homogenate is centrifuged at 4° C. at 1100×g for 10 minutes. The supernatant is collected and stored on ice while the pellets are resuspended in homogenization buffer and rehomogenized as described above. The homogenate is centrifuged at 1100×g for 10 minutes. The second supernatant is combined with the first supernatant and centrifuged at 35000×g for 1 hour at 4° C. The resulting membrane pellet is resuspended in homogenization buffer containing protease inhibitors at approximately 1 to 3 mg/mL, quick frozen in liquid nitrogen and stored as aliquots in a−80° C. freezer until use.
(§3) Method 2: Frozen cell pellets are lysed on ice in hypotonic buffer containing 50 mM Tris HCl, pH 7.5, 1 mM MgCl2, Roche Complete™ EDTA-free Protease Inhibitors and 25 units/ml DNAse I (Invitrogen). The cell suspension is disrupted using a glass Potter-Elvehjem homogenizer fitted with a Teflon® pestle for 20 to 25 strokes. The homogenate is centrifuged at 4° C. at 1800×g for 15 minutes. The supernatant is collected and stored on ice while the pellets are resuspended in homogenization buffer (without DNAse I) and rehomogenized as described above. The homogenate is centrifuged at 1800×g for 15 minutes. The second supernatant is combined with the first supernatant and centrifuged an additional time at 1800×g for 15 minutes. The overall supernatant is then centrifuged at 25000×g for 30 minutes at 4° C. The resulting membrane pellet is resuspended in homogenization buffer (without DNAse I) containing protease inhibitors at approximately 1 to 3 mg/mL and stored as aliquots in a−80° C. freezer until use.
The human Gcg receptor binding assays are performed using a Scintillation Proximity Assay (SPA) format with wheat germ agglutinin (WGA) beads (Perkin Elmer). The binding buffer contains 25 mM 4-(2-hydroxyethyl)-1-piperazineethanesulfonic acid (HEPES), pH 7.4, 2.5 mM CaCl2, 1 mM MgCl2, 0.1% (w/v) bacitracin (Research Products), 0.003% (w/v) Polyoxyethylenesorbitan monolaurate (TWEEN©-20), and Roche Complete™ Protease Inhibitors without EDTA. […] Plates are sealed and mixed on a plate shaker (setting 6) for 1 minute and read with a PerkinElmer Trilux MicroBeta© scintillation counter after 12 hours of incubation/settling time at room temperature.
(§4) Data are analyzed using four-parameter (curve maximum, curve minimum, IC50, Hill slope) nonlinear regression routines (Genedata Screener, version 12.0.4, Genedata AG, Basal, Switzerland). […] Values for Ki are reported as the geometric mean, with error expressed as the standard error of the mean (SEM) and n is equal to the number of independent replicates (determined in assays performed on different days). […] The Ki Ratio is a rapid indication of the apparent affinity of a peptide compared to the native control peptide. […] SEM is only calculated when n=2 or greater non-qualified results exist. Means are expressed as GeoMetric means with the standard error of the mean (SEM) and the number of replicates (n) indicated in parenthesis.

[2] = molecular target: T2, human GIP receptor (Homo sapiens, UniProt P48546); experiment: [125I]-GIP binding (SPA), human GIP receptor; settings: read-out: hGIPR Ki, nM (SEM, n)
T2 construct: expressed in transfected cells; crude membranes
T2 sequence (P48546 22-466): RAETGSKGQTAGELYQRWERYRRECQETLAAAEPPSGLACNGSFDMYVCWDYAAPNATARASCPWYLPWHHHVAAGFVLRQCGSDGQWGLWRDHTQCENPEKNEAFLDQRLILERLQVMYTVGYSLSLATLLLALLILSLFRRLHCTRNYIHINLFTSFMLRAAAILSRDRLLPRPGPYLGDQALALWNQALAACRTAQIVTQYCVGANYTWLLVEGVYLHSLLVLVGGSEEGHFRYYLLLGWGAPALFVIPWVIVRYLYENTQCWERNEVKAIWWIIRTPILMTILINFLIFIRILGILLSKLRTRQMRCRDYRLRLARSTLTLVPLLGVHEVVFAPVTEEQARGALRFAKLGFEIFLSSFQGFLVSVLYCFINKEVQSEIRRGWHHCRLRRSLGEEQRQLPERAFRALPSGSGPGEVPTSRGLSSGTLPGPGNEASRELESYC
Protocol: as §1, §2, §3
The binding buffer contains 25 mM HEPES, pH 7.4, 2.5 mM CaCl2, 1 mM MgCl2, 0.1% (w/v) bacitracin, 0.003% (w/v) TWEEN©-20, and Roche Complete™ Protease Inhibitors without EDTA. Peptides and GIP are thawed and 3 fold serially diluted in 100% DMSO (10 point concentration response curves). […] Plates are sealed and mixed on a plate shaker (setting 6) for 1 minute and read with a PerkinElmer Trilux MicroBeta© scintillation counter after 2.5 to 12 hours of incubation/settling time at room temperature.
as §4

[3] = molecular target: human GLP-1 receptor (GLP-1R) (Homo sapiens, UniProt P43220); experiment: cAMP pharmacological functional assay in presence of casein, hGLP-1R; assay type: cell-based; settings: HEK293 cells expressing hGLP-1R, 0.1% Casein, geometric mean; read-out: hGLP1R cAMP Rel EC50 nM (SEM, n)
Chain of human GLP-1 receptor (GLP-1R) (P43220 24-463): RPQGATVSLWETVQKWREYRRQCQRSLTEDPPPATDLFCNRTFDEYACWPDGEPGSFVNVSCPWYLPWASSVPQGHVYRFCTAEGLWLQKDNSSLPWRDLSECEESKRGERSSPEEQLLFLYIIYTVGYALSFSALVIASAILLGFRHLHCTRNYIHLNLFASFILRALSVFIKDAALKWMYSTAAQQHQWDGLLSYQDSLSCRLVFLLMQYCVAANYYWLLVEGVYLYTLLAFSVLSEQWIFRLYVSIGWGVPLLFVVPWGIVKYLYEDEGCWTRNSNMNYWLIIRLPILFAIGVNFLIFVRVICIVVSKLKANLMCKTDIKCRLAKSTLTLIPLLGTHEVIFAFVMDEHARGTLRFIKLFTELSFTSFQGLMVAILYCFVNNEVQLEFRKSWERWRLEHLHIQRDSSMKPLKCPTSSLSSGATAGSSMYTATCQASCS

[4] = molecular target: T3, gastric inhibitory peptide receptor (GIPR) (Homo sapiens, UniProt P48546); experiment: cAMP pharmacological functional assay in presence of casein, hGIPR; assay type: cell-based; settings: HEK293 cells expressing hGIPR, 0.1% Casein, geometric mean; read-out: hGIPR cAMP Rel EC50 nM (SEM, n)
T3 sequence (P48546 22-466): T2 sequence (P48546 22-466)

[5] = molecular target: human GLP-1R (Homo sapiens, UniProt P43220); experiment: [125I]-GLP-1 binding (SPA), human GLP-1 receptor; parameters: expressed in transfected cells; crude membranes; settings: read-out: hGLP1R Ki, (nM) (SEM, n)
Chain of human GLP-1R (P43220 24-463): as above
Protocol: as §1, §2, §3
The binding buffer contains 25 mM HEPES, pH 7.4, 2.5 mM CaCl2, 1 mM MgCl2, 0.1% (w/v) bacitracin, 0.003% (w/v) TWEEN©-20, and Roche Complete™ Protease Inhibitors without EDTA.
as §4

Row | SMILES | Ki [1] | Ki [2] | EC50 [3] | EC50 [4] | Ki [5]
1 | CC[C@H](C)[C@H](NC(=O)[C@H](CC(C)C)NC(=O)[C@H](Cc1ccc(O)cc1)NC(=O)[C@H](CCC(=O)O)NC(=O)[C@@H](NC(=O)[C@H](Cc1ccccc1)NC(=O)[C@H](Cc1c[nH]cn1)NC(=O)C(C)(C)NC(=O)[C@H](CCC(N)=O)NC(=O)[C@H](C)NC(=O)[C@H](CCCCNC(=O)COCCOCCNC(=O)COCCOCCNC(=O)CC[C@H](NC(=O)CCCCCCCCCCCCCCCCCCC(=O)O)C(=O)O)NC(=O)[C@H](CCCCN)NC(=O)[C@H](CC(=O)O)NC(=O)[C@H](CC(C)C)NC(=O)[C@](C)(CC(C)C)NC(=O)[C@@H](NC(=O)[C@H](CO)NC(=O)[C@H](Cc1ccc(O)cc1)NC(=O)[C@H](CC(=O)O)NC(=O)[C@H](CO)NC(=O)[C@@H](NC(=O)[C@](C)(Cc1ccccc1)NC(=O)[C@@H](NC(=O)CNC(=O)[C@H](CCC(=O)O)NC(=O)C(C)(C)NC(=O)[C@@H](N)Cc1ccc(O)cc1)[C@@H](C)O)[C@@H](C)O)[C@@H](C)CC)[C@@H](C)CC)C(=O)N[C@@H](CCC(=O)O)C(=O)NCC(=O)NCC(=O)N1CCC[C@H]1C(=O)N[C@@H](CO)C(=O)N[C@@H](CO)C(=O)NCC(=O)N[C@@H](C)C(=O)N1CCC[C@H]1C(=O)N1CCC[C@H]1C(=O)N1CCC[C@H]1C(=O)N[C@@H](CO)C(N)=O [Example 142] (H-Y[Aib]EGT[αMeF]TSDYSI[αMeL]LDKK([AEEA-AEEA-γGlu-C20 diacid])AQ[Aib]HFIEYLIEGGPSSGAPPPS-NH2; N-terminus assumed) | 53.1 nM | 0.0275 nM | 0.0426 nM | 0.0489 nM | 1.06 nM
2 | CC[C@H](C)[C@H](NC(=O)[C@H](CC(C)C)NC(=O)[C@H](Cc1ccc(O)cc1)NC(=O)[C@@H](CCC(=O)O)NC(=O)[C@@H](NC(=O)[C@H](Cc1ccccc1)NC(=O)[C@H](CCC(=O)O)NC(=O)C(C)(C)NC(=O)[C@H](CCC(N)=O)NC(=O)[C@H](C)NC(=O)[C@H](CCCCNC(=O)COCCOCCNC(=O)COCCOCCNC(=O)CC[C@H](NC(=O)CCCCCCCCCCCCCCCCCCC(=O)O)C(=O)O)NC(=O)[C@H](CCC(=O)O)NC(=O)[C@H](CC(=O)O)NC(=O)[C@H](CC(C)C)NC(=O)[C@](C)(CC(C)C)NC(=O)[C@@H](NC(=O)[C@H](CO)NC(=O)[C@H](Cc1ccncc1)NC(=O)[C@H](CC(=O)O)NC(=O)[C@H](CO)NC(=O)[C@@H](NC(=O)[C@](C)(Cc1ccccc1F)NC(=O)[C@@H](NC(=O)CNC(=O)[C@H](CCC(=O)O)NC(=O)C(C)(C)NC(=O)[C@@H](N)Cc1ccc(O)cc1)[C@@H](C)O)[C@@H](C)O)[C@@H](C)CC)[C@@H](C)CC)C(=O)N[C@@H](CCC(=O)O)C(=O)NCC(=O)NCC(=O)N1CCC[C@H]1C(=O)N[C@@H](CO)C(=O)N[C@@H](CO)C(=O)NCC(=O)N[C@@H](C)C(=O)N1CCC[C@H]1C(=O)N1CCC[C@H]1C(=O)N1CCC[C@H]1C(=O)N[C@@H](CO)C(N)=O [Example 182] (H-Y[Aib]EGT[αMePhe(2-F)]TSD[4Pal]SI[αMeL]LDEK([AEEA-AEEA-γGlu-C20 diacid])AQ[Aib]EFI[dE]YLIEGGPSSGAPPPS-NH2; N-terminus assumed) | 565 nM | 0.0669 nM |  | 0.0442 nM | 4.64 nM
3 | CC[C@H](C)[C@H](NC(=O)[C@H](CC(C)C)NC(=O)[C@H](Cc1ccc(O)cc1)NC(=O)[C@@H](CCC(=O)O)NC(=O)[C@@H](NC(=O)[C@H](Cc1ccccc1)NC(=O)[C@H](CCC(=O)O)NC(=O)C(C)(C)NC(=O)[C@H](CCC(N)=O)NC(=O)[C@H](C)NC(=O)[C@H](CCCCNC(=O)COCCOCCNC(=O)COCCOCCNC(=O)CC[C@H](NC(=O)CCCCCCCCCCCCCCCCCCC(=O)O)C(=O)O)NC(=O)[C@H](CCC(=O)O)NC(=O)[C@H](CC(=O)O)NC(=O)[C@H](CC(C)C)NC(=O)[C@](C)(CC(C)C)NC(=O)[C@@H](NC(=O)[C@H](CO)NC(=O)[C@H](Cc1cccnc1)NC(=O)[C@H](CC(=O)O)NC(=O)[C@H](CO)NC(=O)[C@@H](NC(=O)[C@](C)(Cc1ccccc1F)NC(=O)[C@@H](NC(=O)CNC(=O)[C@H](CCC(=O)O)NC(=O)C(C)(C)NC(=O)[C@@H](N)Cc1ccc(O)cc1)[C@@H](C)O)[C@@H](C)O)[C@@H](C)CC)[C@@H](C)CC)C(=O)N[C@@H](CCC(=O)O)C(=O)NCC(=O)NCC(=O)N1CCC[C@H]1C(=O)N[C@@H](CO)C(=O)N[C@@H](CO)C(=O)NCC(=O)N[C@@H](C)C(=O)N1CCC[C@H]1C(=O)N1CCC[C@H]1C(=O)N1CCC[C@H]1C(=O)N[C@@H](CO)C(N)=O [Example 181] (H-Y[Aib]EGT[αMePhe(2-F)]TSD[3Pal]SI[αMeL]LDEK([AEEA-AEEA-γGlu-C20 diacid])AQ[Aib]EFI[dE]YLIEGGPSSGAPPPS-NH2) | 413 nM | 0.145 nM |  |  | 7.28 nM
4 | CC[C@H](C)[C@H](NC(=O)[C@H](CC(C)C)NC(=O)[C@H](Cc1ccc(O)cc1)NC(=O)[C@@H](CCC(=O)O)NC(=O)[C@@H](NC(=O)[C@H](Cc1ccccc1)NC(=O)[C@H](CCC(=O)O)NC(=O)C(C)(C)NC(=O)[C@H](CCC(N)=O)NC(=O)[C@H](C)NC(=O)[C@H](CCCCNC(=O)COCCOCCNC(=O)COCCOCCNC(=O)CC[C@H](NC(=O)CCCCCCCCCCCCCCCCCCC(=O)O)C(=O)O)NC(=O)[C@H](CCC(=O)O)NC(=O)[C@H](CC(=O)O)NC(=O)[C@H](CC(C)C)NC(=O)[C@](C)(CC(C)C)NC(=O)[C@@H](NC(=O)[C@H](CO)NC(=O)[C@H](CC(C)C)NC(=O)[C@H](CC(=O)O)NC(=O)[C@H](CO)NC(=O)[C@@H](NC(=O)[C@](C)(Cc1ccccc1F)NC(=O)[C@@H](NC(=O)CNC(=O)[C@H](CCC(=O)O)NC(=O)C(C)(C)NC(=O)[C@@H](N)Cc1ccc(O)cc1)[C@@H](C)O)[C@@H](C)O)[C@@H](C)CC)[C@@H](C)CC)C(=O)N[C@@H](CCC(=O)O)C(=O)NCC(=O)NCC(=O)N1CCC[C@H]1C(=O)N[C@@H](CO)C(=O)N[C@@H](CO)C(=O)NCC(=O)N[C@@H](C)C(=O)N1CCC[C@H]1C(=O)N1CCC[C@H]1C(=O)N1CCC[C@H]1C(=O)N[C@@H](CO)C(N)=O [Example 183] (H-Y[Aib]EGT[αMePhe(2-F)]TSDLSI[αMeL]LDEK([AEEA-AEEA-γGlu-C20 diacid])AQ[Aib]EFI[dE]YLIEGGPSSGAPPPS-NH2) | 304 nM | 0.0869 nM |  | 0.0615 nM | 4.11 nM
